Values of other authors, collected in patent US6638906B1, “Amphiphilic polymers and polypeptide conjugates comprising same” (Nobex Corporation, priority 1999, dated 2003).

B1: diazepan binding inhibitor: peptide secreted into the intestines found to stimulate CCK release (protein, UniProt P07108 2-87, looked up)
Acyl-CoA-binding protein: SQAEFEKAAEEVRHLKTKPSDEEMLFIYGHYKQATVGDINTERPGMLDFTGKAKWDAWNELKGTSKEDAMKAYINKVEELKKKYGI
B2: monitor peptide: peptide secreted into the intestines that controls CCK release by positive feedback regulation (protein, UniProt P09655 19-79, looked up)
Serine protease inhibitor …: GNPPAEVNGKTPNCPKQIMGCPRIYDPVCGTNGITYPSECSLCFENRKFGTSIHIQRRGTC

What was measured:
native CCK cells = conditions: versus vehicle/basal secretion
food intake = conditions: infused into the duodenum of rats with trypsin inhibitors
[1] = tested on: pancreatic protein output; conditions: infused into the duodenum of rats
CCK release = conditions: relative to LCRF

| Molecule | increase in CCK secretion (native CCK cells) [%] | increase in CCK secretion (STC-1 cells) [%] | effect on food intake (food intake) | dose-response of pancreatic protein output [1] | potency for stimulating CCK release, fold less than LCRF (CCK release) |
| --- | --- | --- | --- | --- | --- |
| luminal cholecystokinin releasing factor [Native LCRF] | ~300 | ~300 | causes a reduction of food intake | biphasic dose-response of curve of pancreatic protein output is observed, with higher doses of LCRF leading to decreased pancreatic protein output |  |
| B1 |  |  |  |  | 100-1,000 fold |
| B2 |  |  |  |  | 6 fold |
